Converted amounts (≈) assume the structure as drawn.
Experiments:
[1] = tested on: RPMI8226 (multiple myeloma); experiment: MTT multiple myeloma cell growth inhibition, 72 h; format: cell-based, human; details: Homo sapiens, RPMI-8226, RPMI8226, 72 h; for IC50: read-out: IC50; for IC90: read-out: IC90
Experimental: Multiple myeloma and lymphoma cell lines: RPMI8226 (multiple myeloma), purchased from Fuxiang Bio-tech Co. Ltd., Shanghai, China.
(§1) Obtaining 6000 well-growing leukemia cells and inoculating them into wells of a 96-well cell culture plate. The culture medium is the 1640 cell culture medium containing 10% fetal bovine serum. After adding the homoharringtonine derivatives of different concentrations and mixing uniformly, placing the plate in a carbon dioxide cell incubator (5% CO2) at 37° C. and incubating for 72 hours. Then the viable cell concentration is determined by the MTT method.

[2] = tested on: PANC-1 (pancreatic cancer); experiment: MTT solid tumor cell growth inhibition, 72 h; format: cell-based, human; details: Homo sapiens, PANC-1, 72 h; for IC50: read-out: IC50; for IC90: read-out: IC90
Experimental: (§2) Human solid tumor cell lines: Hep-2 ([…]), A549 (human lung cancer), CaES-17 (esophageal cancer cell), PC-3 (prostate cancer), CNE (nasopharyngeal carcinoma cell), and SK-OV-3 (ovarian cancer cell), all of which are purchased from China Center For Type Culture Collection; RKO (human colon adenocarcinoma cell), MGC 803 (human gastric cancer cell), MG63 (osteosarcoma) and U87 MG (malignant glioma cell), all of which are purchased from Fuxiang Bio-tech Co. Ltd., Shanghai, China; PANC-1 (pancreatic cancer), Huh7 (human liver cancer cell), Becap37 (human breast cancer cell), and Hela (human cervical cancer cell), all of which are donated by Cancer Research Institute of Zhejiang University, China.
(§3) Obtaining 4000 well-growing human solid tumor cells and inoculating them into wells of a 96-well cell culture plate. The culture medium is DMEM High Glucose cell culture medium containing 10% fetal bovine serum. The plate is placed in a carbon dioxide cell incubator (5% CO2) at 37° C. and incubating for 24 hours. After adding the homoharringtonine derivatives of different concentration and mixing uniformly, the plate is placed in a carbon dioxide cell incubator (5% CO2) at 37° C. and incubating for 72 hours. Then the viable cell concentration is determined by the MTT method and the cell viability (%) after drug treatment is calculated. In this experiment, the cell viability of control group (not treated with any compound) is set as 100%.

MG63 (osteosarcoma) = experiment: MTT solid tumor cell growth inhibition, 72 h; format: cell-based, human; details: Homo sapiens, MG 63, 72 h; for IC50: read-out: IC50; for IC90: read-out: IC90
Experimental: as §2, §3

[3] = tested on: Jurkat (acute lymphoblastic leukemia, ALL); experiment: MTT leukemia cell growth inhibition, 72 h; format: cell-based, human; details: Homo sapiens; for IC50: read-out: IC50; for IC90: read-out: IC90
Source text: (§4) Leukemia cell lines: K562/adr (drug-resistant, chronic myeloid leukemia, CML), NB4 (acute promyelocytic leukemia, AML), Kasumi-1 (acute myeloid leukemia M2 type, AML-M2), Jurkat (acute lymphoblastic leukemia, ALL), all of which are donated by Cancer Research Institute of Zhejiang University, China; and H9 (acute lymphoblastic leukemia, ALL), which is purchased from China Center for Type Culture Collection.
as §1, with “method. In this experiment, the cell viability in control group (not treated with any compound) is set as 100%.” for “method.”

[4] = tested on: NB4 (acute promyelocytic leukemia, AML); experiment: MTT leukemia cell growth inhibition, 72 h; format: cell-based, human; details: Homo sapiens, NB4, 72 h; for IC50: read-out: IC50; for IC90: read-out: IC90
Source text: as §4
as §1, with “method. In this experiment, the cell viability in control group (not treated with any compound) is set as 100%.” for “method.”

[5] = tested on: H9 (acute lymphoblastic leukemia, ALL); experiment: MTT leukemia cell growth inhibition, 72 h; format: cell-based, human; details: Homo sapiens, H9, 72 h; for IC50: read-out: IC50; for IC90: read-out: IC90
Source text: as §4
as §1, with “method. In this experiment, the cell viability in control group (not treated with any compound) is set as 100%.” for “method.”

[6] = tested on: K562/adr (drug-resistant, chronic myeloid leukemia, CML); experiment: MTT leukemia cell growth inhibition, 72 h; format: cell-based, human; details: Homo sapiens, K562/Adr; for IC50: read-out: IC50; for IC90: read-out: IC90
Source text: as §4
as §1, with “method. In this experiment, the cell viability in control group (not treated with any compound) is set as 100%.” for “method.”

[7] = tested on: Kasumi-1 (acute myeloid leukemia M2 type, AML-M2); experiment: MTT leukemia cell growth inhibition, 72 h; format: cell-based, human; details: Homo sapiens, Kasumi-1, 72 h; for IC50: read-out: IC50; for IC90: read-out: IC90
Source text: as §4
as §1, with “method. In this experiment, the cell viability in control group (not treated with any compound) is set as 100%.” for “method.”

[8] = tested on: Huh7 (human liver cancer cell); experiment: MTT solid tumor cell growth inhibition, 72 h; format: cell-based; details: Homo sapiens, Huh-7, Huh7, 72 h; for IC50: read-out: IC50; for IC90: read-out: IC90
Experimental: as §2, §3

[9] = tested on: Becap37 (human breast cancer cell); experiment: MTT solid tumor cell growth inhibition, 72 h; format: cell-based; details: Homo sapiens, Becap37, 72 h; for IC50: read-out: IC50; for IC90: read-out: IC90
Experimental: as §2, §3

A549 (human lung cancer) = experiment: MTT solid tumor cell growth inhibition, 72 h; format: cell-based; details: Homo sapiens, A549, 72 h; for IC50: read-out: IC50; for IC90: read-out: IC90
Experimental: as §2, §3

[10] = tested on: RKO (human colon adenocarcinoma cell); experiment: MTT solid tumor cell growth inhibition, 72 h; format: cell-based; details: Homo sapiens
Experimental: as §2, §3

[11] = tested on: MGC 803 (human gastric cancer cell); experiment: MTT solid tumor cell growth inhibition, 72 h; format: cell-based; details: Homo sapiens, MGC 803, 72 h; for IC50: read-out: IC50; for IC90: read-out: IC90
Experimental: as §2, §3

Compound	IC50 [1]	IC90 [1]	IC50 [2]	IC90 [2]	IC50 (MG63 (osteosarcoma))	IC90 (MG63 (osteosarcoma))	IC50 [3]	IC90 [3]	IC50 [4]	IC90 [4]	IC50 [5]	IC90 [5]	IC50 [6]	IC90 [6]	IC50 [7]	IC90 [7]	IC50 [8]	IC90 [8]	IC50 [9]	IC90 [9]	also measured
COC1=C[C@]23CCCN2CCc2cc4c(cc2[C@@H]3[C@@H]1OC(=O)[C@@](O)(CCCC(C)(C)O)CC(=O)N1CCOCC1)OCO4 [BS-HH-011]	6.71 µg/mL (≈ 11.2 µM)	> 16 µg/mL	> 16 µg/mL	> 16 µg/mL	6.33 µg/mL (≈ 10.5 µM)	> 16 µg/mL	6.7 µg/mL (≈ 11.2 µM)	> 16 µg/mL	3.22 µg/mL (≈ 5.36 µM)	9.54 µg/mL (≈ 15.9 µM)	> 16 µg/mL	> 16 µg/mL	> 16 µg/mL	> 16 µg/mL	8.28 µg/mL (≈ 13.8 µM)	> 16 µg/mL	16 µg/mL (≈ 26.6 µM)	> 16 µg/mL	11.3 µg/mL (≈ 18.8 µM)	> 16 µg/mL	IC50 (A549 (human lung cancer)): > 16 µg/mL; IC90 (A549 (human lung cancer)): > 16 µg/mL; IC50 ([10]; read-out: IC50): 4 µg/mL (≈ 6.66 µM); IC90 ([10]; read-out: IC90): > 16 µg/mL
COC1=C[C@]23CCCN2CCc2cc4c(cc2[C@@H]3[C@@H]1OC(=O)[C@@](O)(CCCC(C)(C)O)CC(=O)N1CCCCC1)OCO4 [BS-HH-051]	1.7 µg/mL (≈ 2.84 µM)	16 µg/mL (≈ 26.7 µM)	6.84 µg/mL (≈ 11.4 µM)	> 16 µg/mL	2.72 µg/mL (≈ 4.54 µM)	> 16 µg/mL	1.3 µg/mL (≈ 2.17 µM)	> 16 µg/mL	1.5 µg/mL (≈ 2.51 µM)	16 µg/mL (≈ 26.7 µM)	7.26 µg/mL (≈ 12.1 µM)	> 16 µg/mL	> 16 µg/mL	> 16 µg/mL	2 µg/mL (≈ 3.34 µM)	16 µg/mL (≈ 26.7 µM)	> 16 µg/mL	> 16 µg/mL	1.99 µg/mL (≈ 3.32 µM)	> 16 µg/mL	IC50 (A549 (human lung cancer)): 6.96 µg/mL (≈ 11.6 µM); IC90 (A549 (human lung cancer)): > 16 µg/mL; IC50 [11]: 1.9 µg/mL (≈ 3.17 µM); IC90 [11]: 26.7 µg/mL (≈ 44.6 µM)
COC1=C[C@]23CCCN2CCc2cc4c(cc2[C@@H]3[C@@H]1OC(=O)[C@@](O)(CCCC(C)(C)O)CC(=O)NCc1ccco1)OCO4 [BS-HH-043]	> 16 µg/mL	> 16 µg/mL	> 16 µg/mL	> 16 µg/mL	> 16 µg/mL	> 16 µg/mL	13 µg/mL (≈ 21.3 µM)	> 16 µg/mL	15 µg/mL (≈ 24.6 µM)	> 16 µg/mL	> 16 µg/mL	> 16 µg/mL	> 16 µg/mL	> 16 µg/mL	11.1 µg/mL (≈ 18.1 µM)	> 16 µg/mL	> 16 µg/mL	> 16 µg/mL	> 16 µg/mL	> 16 µg/mL	IC50 (A549 (human lung cancer)): > 16 µg/mL; IC90 (A549 (human lung cancer)): > 16 µg/mL; IC50 [11]: > 16 µg/mL; IC90 [11]: > 16 µg/mL
COC1=C[C@]23CCCN2CCc2cc4c(cc2[C@@H]3[C@@H]1OC(=O)[C@@](O)(CCCC(C)(C)O)CC(=O)N1CCCC(C)C1)OCO4 (stereo partly shown) [BS-HH-038]	1.22 µg/mL (≈ 1.99 µM)	16 µg/mL (≈ 26.1 µM)	8.83 µg/mL (≈ 14.4 µM)	> 16 µg/mL	3.71 µg/mL (≈ 6.05 µM)	> 16 µg/mL	1.47 µg/mL (≈ 2.4 µM)	16 µg/mL (≈ 26.1 µM)	0.32 µg/mL (≈ 0.522 µM)	4.24 µg/mL (≈ 6.92 µM)	7.37 µg/mL (≈ 12 µM)	> 16 µg/mL	> 16 µg/mL	> 16 µg/mL	2 µg/mL (≈ 3.26 µM)	12 µg/mL (≈ 19.6 µM)	16 µg/mL (≈ 26.1 µM)	> 16 µg/mL	1.95 µg/mL (≈ 3.18 µM)	> 16 µg/mL	IC50 (A549 (human lung cancer)): 5.72 µg/mL (≈ 9.33 µM); IC90 (A549 (human lung cancer)): > 16 µg/mL

— patent publication US9676789B2, “Aminated derivative of homoharringtonine, preparation method therefor, and application thereof” (HANGZHOU BENSHENG PHARMACEUTICAL CO., LTD., priority 2011, dated 2017)
